The record followed here is paper PMC8000724, “Trans-Epithelial Transport, Metabolism, and Biological Activity Assessment of the Multi-Target Lupin Peptide [sequence] (P5) and Its Metabolite [sequence] (P5-Met)” (Nutrients, 2021).

Data set [1] deals with differentiated Caco-2 cells. The experiment in a line: Trans-epithelial transport across differentiated Caco-2 cell monolayer. It counts as in vitro ADME, human. Conditions: for Amount in the BL compartment after 30 min: alone, 500 μM in AP, Caco-2 AP to BL. Here is the method:
Human intestinal Caco-2 cells, obtained from INSERM (Paris, France), where cultured according to a published protocol. For differentiation, they were seeded on polycarbonate filters, 12 mm diameter, 0.4 µm pore diameter (Transwell, Corning Inc., Lowell, MA, US) at a 3.5 × 10^5 cells/cm^2 density in complete medium supplemented with 10% FBS in both AP and BL compartments for 2 d to allow the formation of a confluent cell monolayer. Starting from day three after seeding, cells were transferred to FBS-free medium in both compartments, supplemented with ITS (final concentration 10 mg/L insulin (I), 5.5 mg/L transferrin (T), 6.7 μg/L sodium selenite (S); GIBCO-Invitrogen, San Giuliano Milanese, Italy) only in the basolateral (BL) compartment, and allowed to differentiate for 18–21 days with regular medium changes three times weekly.
The transepithelial electrical resistance (TEER) of differentiated Caco-2 cells was measured at 37 °C using the voltmeter apparatus Millicell (Millipore Co., Billerica, MA, USA), immediately before and at the end of the transport experiments. In addition, at the end of transport experiments, cells were incubated from the AP side with 1 mM phenol-red in PBS containing Ca^++ (0.9 mM) and Mg^++ (0.5 mM) for 1 h at 37 °C, to monitor the paracellular permeability of the cell monolayer. The BL solutions were then collected and NaOH (70 µL, 0.1 N) was added before reading the absorbance at 560 nm by a microplate reader Synergy H1 from Biotek (Winooski, VT, USA). Phenol-red passage was quantified using a standard phenol-red curve. Only filters showing TEER values and phenol red passages similar to untreated control cells were considered for peptide transport analysis.
Prior to experiments, the cell monolayer integrity and differentiation were checked by TEER measurement as described in detail above. Peptide trans-epithelial passage was assayed in differentiated Caco-2 cells in transport buffer solution (137 mM NaCl, 5.36 mM KCl, 1.26 mM CaCl2, and 1.1 mM MgCl2, 5.5 mM glucose) according to previously described conditions. In order to reproduce the pH conditions existing in vivo in the small intestinal mucosa, the apical (AP) solutions were maintained at pH 6.0 (buffered with 10 mM morpholinoethane sulfonic acid), and the basolateral (BL)solutions were maintained at pH 7.4 (buffered with 10 mM […]). Prior to transport experiments, cells were washed twice with 500 µL PBS containing Ca^++ and Mg^++. Peptide transportation by mature Caco-2 cells was assayed by loading the AP compartment with P5 alone, in mixture with […] (P3) and […] (P7), and/or P5-met (500 μM) in the AP transport solution (500 µL) and the BL compartment with the BL transport solution (700 µL). The plates were incubated at 37 °C and the BL solutions were collected at different time points (i.e., 15, 30, 60, 90, and 120 min) and replaced with fresh solutions pre-warmed at 37 °C. All BL and AP solutions collected at the end of the transport experiment were stored at −80 °C prior to analysis. Three independent transport experiments were performed, each in duplicate. In order to assess the involvement of transcytotic process in peptides passage, parallel transport experiments were performed in the presence of 500 nM wortmannin in both the AP and BL compartment, over 60 min incubation time.
The medium collected at the end of transport experiments from AP and BL chambers (500 µL and 700 µL, respectively) were freeze-dried and residues were solubilized in HPLC water (100 µL). Samples were desalted with C18 resin ZipTip by using 80% ACN, 0.1% FA as eluent (Millipore Corporation, Bedford, MA, USA). Each sample was lyophilized under speed-vacuum for 5 h at 30°C and re-dissolved in 50 μL (0.1% formic acid), before MS analysis. Purified BL samples were analyzed on a SL IT mass spectrometer interfaced with a HPLC- Chip Cube source (Agilent Technologies, Palo Alto, CA, USA). […]
(In general: Caco-2 monolayers are a common model of the intestinal barrier.)

The test system of a further data set is PCSK9. The experiment in a line: Western blot, PCSK9 protein level in HepG2 cells. The format is cell-based, human. The settings on record: HepG2, 50 µM, 24 h, mean ± SD. How it is done:
(§1) The HepG2 cell line was bought from ATCC (HB-8065, ATCC from LGC Standards, Milan, Italy) and was cultured in DMEM high glucose with stable L-glutamine, supplemented with 10% FBS, 100 U/mL penicillin, 100 µg/mL streptomycin (complete growth medium) with incubation at 37 °C under 5% CO2 atmosphere.
(§2) Immunoblotting experiments were performed using optimized protocol. A total of 1.5 × 10^5 HepG2 cells/well (24-well plate) were treated with 50 μM of P5 and P5-met for 24 h. After each treatment, the supernatants were collected and stored at −20°C; cells were scraped in 40 µL ice-cold lysis buffer (RIPA buffer + inhibitor cocktail + 1:100 PMSF + 1:100 Na-orthovanadate + 1:1000 β-mercaptoethanol) and transferred in ice-cold microcentrifuge tubes. […] Total proteins were quantified by the Bradford’s method and 50 μg of total proteins loaded on a pre-cast 7.5% Sodium Dodecyl Sulfate-Polyacrylamide (SDS-PAGE) gel at 130 V for 45 min. […] Target proteins, on milk or BSA blocked membrane, were detected by primary antibodies as follows: anti-SREBP-2, anti-LDLR, anti-HMGCoAR, anti-PCSK9, anti HNF1-α and anti-β-actin. Secondary antibodies conjugated with HRP and a chemiluminescent reagent were used to visualize target proteins and their signal was quantified using the Image Lab Software (Biorad, Hercules, CA, USA). […]
(In general: In western blotting, separated proteins are transferred to a membrane and probed.)

For the next data set, the system named is LDLR. Kind of data set: Western blot, LDLR protein level in HepG2 cells. The format is cell-based, human. Conditions: HepG2, 50 µM, 24 h, mean ± SD. How it is done: as §1, §2
A further data set relates to HMGCoAR. Kind of data set: Western blot, HMGCoAR protein level in HepG2 cells. Conditions: HepG2, 50 µM, 24 h, mean ± SD. The format is cell-based, human. How it is done:
as §1, §2

On to H-LPKHSDAD-OH [Peptide P5-met], for which the “Effect of the transcytosis inhibitor wortmannin on transport across Caco-2 cells” value in data set [1] (500 nM wortmannin in AP and BL compartments, 60 min, HPLC-Chip MS of BL compartment) is listed as “transported also in the presence of wortmannin”. Also, the “Amount in the BL compartment after 30 min” value was found to be 0.54 ± 0.02 µg in data set [1] (AP pH 6.0 / BL pH 7.4, 37 °C, LC-MS/MS MRM, mean ± SD of three independent experiments) and 0.613 nmol in data set [1] (conversion of the µg value). For the same substance, the “Decrease of PCSK9 protein level” value with PCSK9 came to 29 ± 8.1%. Further, the “LDLR protein level versus the control” value with LDLR is 150.4 ± 29.2%. Further, the “HMGCoAR protein level versus the control” value in the data set on HMGCoAR was found to be 117.9 ± 12.1%.
